Source: US6391917B1, “Dialkyl ureas as calcitonin mimetics” (ZymoGenetics, Inc., priority 1998, dated 2002)

Test: Induction of hypocalcemia in rats
Assay type: in vivo
Conditions: weanling rats, tail vein, 0.5, 2.5, 5, 50 and 100 ng/rat, serum calcium one hour later
Protocol: This assay is based on the in vivo acute effect of calcitonin on osteoclasts, which causes rapid retraction of osteoclasts from bone surface (typically within 30 minutes) and which results in decreased bone resorption. See Mills, et al., in Endocrinology 1971—Proceedings of the Third International SymDosium, Taylor (ed), Heinemann Medical, London, pp. 79-88 (1972) and Singer, et al., Clin. Endocrinol. 5(Supp):333s-40s, 1976. The assay method was modified from the method described by Sturtridge and Kumar, Lancet 545:725-6, 1968. For the assay of hypocalcemic activity, weanling male Holtzman Sprague-Dawley rats (22 days old) are infused with vehicle (PBS with 1 mM HCl and 0.1% BSA), calcitonin or calcitonin mimetics through the tail vein. One hour later, blood samples are collected by orbital sinus puncture to determine serum levels of calcium. A decrease in serum calcium indicates a hypocalcemic response. The hypocalcemic response is dose-dependent as determined using salmon calcitonin (0.5, 2.5, 5, 50 and 100 ng/rat) in this model. Inhibition of PTH-induced hypercalcemia in TPTX rats

salmon calcitonin
hypocalcemic response: dose-dependent
